From PubChem BioAssay AID248 (DTP/NCI, 2004)
“And” between values parts separate entries of the source, which are not always exact repeats. Identical values can stand only once. Toxic doses and inconclusive results are not listed. Rule as the data show it: active = T/C of 150% or more; inactive = T/C below 125%.

Tested on: L1210 leukemia ip in BDF1 mice, survival T/C
Test: NCI In Vivo Anticancer Drug Screen. Data for tumor model L1210 Leukemia (intraperitoneal) in B6D2F1 (BDF1) mice
Conditions: endpoint: mean survival time, higher = longer survival
Outline: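 Tumor cells were implanted, animals were treated, and survival was followed. The result divides the treated measurement by the vehicle-control measurement.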

[1] = dose: 100.0 mg/kg/injection, schedule: Q01DX009 (ip), vehicle: Klucel (hydroxypropylcellulose) (HPC)
[2] = dose: 100.0 mg/kg/injection, schedule: Q04DX003 (ip), vehicle: Klucel (hydroxypropylcellulose) (HPC)
[3] = dose: 200.0 mg/kg/injection, schedule: Q01DX009 (ip), vehicle: Klucel (hydroxypropylcellulose) (HPC)
[4] = dose: 200.0 mg/kg/injection, schedule: Q04DX003 (ip), vehicle: Klucel (hydroxypropylcellulose) (HPC)
[5] = dose: 400.0 mg/kg/injection, schedule: Q01DX009 (ip), vehicle: Klucel (hydroxypropylcellulose) (HPC)
[6] = dose: 400.0 mg/kg/injection, schedule: Q04DX003 (ip), vehicle: Klucel (hydroxypropylcellulose) (HPC)
[7] = dose: 100.0 mg/kg/injection, schedule: Q01DX001 (ip), vehicle: saline with Tween-80
[8] = dose: 200.0 mg/kg/injection, schedule: Q01DX001 (ip), vehicle: saline with Tween-80
[9] = dose: 100.0 mg/kg/injection, schedule: Q04DX002 (ip), vehicle: Klucel (hydroxypropylcellulose) (HPC)
[10] = dose: 200.0 mg/kg/injection, schedule: Q04DX002 (ip), vehicle: Klucel (hydroxypropylcellulose) (HPC)
[11] = dose: 400.0 mg/kg/injection, schedule: Q04DX002 (ip), vehicle: Klucel (hydroxypropylcellulose) (HPC)
[12] = dose: 100.0 mg/kg/injection, schedule: Q01DX001 (ip), vehicle: saline
[13] = dose: 200.0 mg/kg/injection, schedule: Q01DX001 (ip), vehicle: saline
[14] = dose: 400.0 mg/kg/injection, schedule: Q01DX001 (ip), vehicle: saline
[15] = dose: 100.0 mg/kg/injection, schedule: Q04DX003 (ip), vehicle: saline with Tween-80
[16] = dose: 200.0 mg/kg/injection, schedule: Q04DX003 (ip), vehicle: saline with Tween-80
[17] = dose: 400.0 mg/kg/injection, schedule: Q04DX003 (ip), vehicle: saline with Tween-80
[18] = dose: 100.0 mg/kg/injection, schedule: Q01DX009 (ip), vehicle: saline with Tween-80
[19] = dose: 200.0 mg/kg/injection, schedule: Q01DX009 (ip), vehicle: saline with Tween-80
[20] = dose: 400.0 mg/kg/injection, schedule: Q01DX009 (ip), vehicle: saline with Tween-80
[21] = dose: 100.0 mg/kg/injection, schedule: Q01DX001 (ip), vehicle: Klucel (hydroxypropylcellulose) (HPC)
[22] = dose: 200.0 mg/kg/injection, schedule: Q01DX001 (ip), vehicle: Klucel (hydroxypropylcellulose) (HPC)
[23] = dose: 400.0 mg/kg/injection, schedule: Q01DX001 (ip), vehicle: Klucel (hydroxypropylcellulose) (HPC)
[24] = dose: 25.0 mg/kg/injection, schedule: Q01DX009 (ip), vehicle: saline with Tween-80
[25] = dose: 50.0 mg/kg/injection, schedule: Q01DX009 (ip), vehicle: saline with Tween-80
[26] = dose: 50.0 mg/kg/injection, schedule: Q01DX001 (ip), vehicle: carboxymethylcellulose (CMC)
[27] = dose: 100.0 mg/kg/injection, schedule: Q01DX001 (ip), vehicle: carboxymethylcellulose (CMC)
[28] = dose: 200.0 mg/kg/injection, schedule: Q01DX001 (ip), vehicle: carboxymethylcellulose (CMC)
[29] = dose: 400.0 mg/kg/injection, schedule: Q01DX001 (ip), vehicle: carboxymethylcellulose (CMC)

Measured: T/C

CC1(C)N=C(N)N=C(N)N1c1cc(Cl)ccc1Cl
inactive: dose: 12.0 mg/kg/injection, schedule: Q04DX003 (ip), vehicle: saline 117 % of control | dose: 12.5 mg/kg/injection, schedule: Q01DX001 (ip), vehicle: saline 98 % of control | dose: 25.0 mg/kg/injection, schedule: Q01DX001 (ip), vehicle: saline 90 % of control | dose: 25.0 mg/kg/injection, schedule: Q01DX009 (ip), vehicle: saline 101 % of control | dose: 25.0 mg/kg/injection, schedule: Q04DX003 (ip), vehicle: saline 100 % of control | dose: 50.0 mg/kg/injection, schedule: Q01DX001 (ip), vehicle: saline 98 % of control | dose: 50.0 mg/kg/injection, schedule: Q01DX009 (ip), vehicle: saline 97 % of control | dose: 50.0 mg/kg/injection, schedule: Q04DX003 (ip), vehicle: saline 103 % of control

CC(=O)Nc1cc([N+](=O)[O-])ccc1CC(O)c1ccccc1 (configuration not stated)
inactive: [1] 109 % of control | [2] 97 % of control | [3] 111 % of control | [4] 97 % of control | [5] 94 % of control | [6] 100 % of control

CCCCP(=O)(CCCC)C1CCCC1
inactive: [7] 103 % of control | [8] 100 % of control | dose: 400.0 mg/kg/injection, schedule: Q01DX001 (ip), vehicle: saline with Tween-80 90 % of control

O=C(Nc1nccs1)c1ccccc1F
inactive: [9] 87 % of control | [10] 97 % of control | [11] 102 % of control

Cc1ccc(NC(=O)Nc2cccc3ccccc23)c(C)c1
inactive: [2] 91 % of control | [3] 88 % of control | [4] 95 % of control | [5] 92 % of control | [6] 91 % of control

CC(=O)N=c1ccc(C)cn1O
inactive: dose: 75.0 mg/kg/injection, schedule: Q01DX009 (ip), vehicle: Klucel (hydroxypropylcellulose) (HPC) 91 % of control | [2] 104 % of control | dose: 150.0 mg/kg/injection, schedule: Q01DX009 (ip), vehicle: Klucel (hydroxypropylcellulose) (HPC) 102 % of control | [4] 100 % of control | dose: 300.0 mg/kg/injection, schedule: Q01DX009 (ip), vehicle: Klucel (hydroxypropylcellulose) (HPC) 96 % of control | [6] 102 % of control

C/C(=N\N=C(/C)c1c(C)c([N+](=O)[O-])c(C(C)(C)C)c([N+](=O)[O-])c1C)c1c(C)c([N+](=O)[O-])c(C(C)(C)C)c([N+](=O)[O-])c1C
inactive: [9] 97 % of control | [10] 94 % of control | [11] 97 % of control

CC1CC(=O)Oc2cc(O)c(O)cc21 (configuration not stated)
inactive: [12] 101 % of control | [13] 95 % of control | [14] 95 % of control

C=CCOc1cc[n+]([O-])cc1
inactive: [12] 100 % of control | [13] 105 % of control

NC1CCC(CC23CC4CC(CC(C4)C2)C3)CC1 (configuration not stated)
inactive: dose: 25.0 mg/kg/injection, schedule: Q04DX003 (ip), vehicle: Klucel (hydroxypropylcellulose) (HPC) 110 % of control | dose: 50.0 mg/kg/injection, schedule: Q04DX003 (ip), vehicle: Klucel (hydroxypropylcellulose) (HPC) 102 % of control | [2] 94 % of control and 101 % of control

O=C(O)c1cc(O)[nH]c(=O)c1
inactive: [15] 102 % of control | [16] 91 % of control | [17] 94 % of control

c1csc(-c2nc3ccccc3s2)c1
inactive: [18] 98 % of control | [15] 101 % of control | [19] 100 % of control | [16] 98 % of control | [20] 94 % of control | [17] 93 % of control

O=C(C[n+]1ccccc1Br)c1cccc2ccccc12
inactive: dose: 9.38 mg/kg/injection, schedule: Q01DX001 (ip), vehicle: other 103 % of control

CCCCCCCN(CCCCCCC)CC(O)c1cc(-c2ccc(Cl)cc2)nc2c(C(F)(F)F)cccc12 (configuration not stated)
inactive: [21] 104 % of control | [18] 102 % of control | [22] 96 % of control | [19] 100 % of control | [23] 100 % of control | [20] 100 % of control

N#CCCn1c(=S)sc2ccccc21
inactive: dose: 50.0 mg/kg/injection, schedule: Q04DX003 (ip), vehicle: saline with Tween-80 103 % of control | [15] 100 % of control | [16] 106 % of control

COc1ccc(/C=C2\SC(=O)NC2=O)cc1
inactive: [24] 91 % of control | [25] 104 % of control | [18] 100 % of control

CC(C)CCc1nc2c(c(=O)n(C)c(=O)n2C)n1C
inactive: [26] 116 % of control | [27] 103 % of control | [28] 103 % of control | [29] 103 % of control

OC(CCl)Cc1ccccc1 (configuration not stated)
inactive: [24] 93 % of control | [25] 90 % of control | [18] 92 % of control

CCOC(=O)C1CC(=O)C(C(=O)OCC)CC1=O (configuration not stated)
inactive: [12] 101 % of control | [13] 95 % of control | [14] 95 % of control

CCOC(=O)c1oc(C)nc1C
inactive: [21] 122 % of control | [22] 97 % of control | [23] 101 % of control

CC(C)=NNC(=O)Nc1cccc(C)c1C
inactive: [1] 90 % of control | [3] 91 % of control

Cc1ccc(C(=O)c2ccc(C)cc2)cc1
inactive: dose: 12.5 mg/kg/injection, schedule: Q04DX002 (ip), vehicle: Klucel (hydroxypropylcellulose) (HPC) 91 % of control | dose: 25.0 mg/kg/injection, schedule: Q04DX002 (ip), vehicle: Klucel (hydroxypropylcellulose) (HPC) 94 % of control | dose: 50.0 mg/kg/injection, schedule: Q04DX002 (ip), vehicle: Klucel (hydroxypropylcellulose) (HPC) 97 % of control | [1] 101 % of control | dose: 100.0 mg/kg/injection, schedule: Q04DX002 (ip), vehicle: saline 101 % of control | [2] 100 % of control | [3] 97 % of control | dose: 200.0 mg/kg/injection, schedule: Q04DX002 (ip), vehicle: saline 101 % of control | [4] 89 % of control | [5] 98 % of control | [6] 100 % of control

Nc1ncnc(N)c1NC(=O)/C=C/c1ccccc1
inactive: [7] 116 % of control | [8] 101 % of control

CC1(O)CCCCC1
inactive: [12] 102 % of control | [13] 104 % of control | [14] 96 % of control

C=CCSc1ccc([N+](=O)[O-])cc1
inactive: [26] 101 % of control | [27] 95 % of control | [28] 104 % of control | [29] 98 % of control

C=C1C(=O)O[C@H]2C[C@@]3(C)[C@H](O)CCC(=C)[C@@H]3[C@@H](OC(C)=O)[C@H]12
inactive: dose: 25.0 mg/kg/injection, schedule: Q04DX002 (ip), vehicle: saline with Tween-80 86 % of control | dose: 50.0 mg/kg/injection, schedule: Q04DX002 (ip), vehicle: saline with Tween-80 93 % of control | dose: 100.0 mg/kg/injection, schedule: Q04DX002 (ip), vehicle: saline with Tween-80 108 % of control and 90 % of control
